Values joined by “and” are separate entries in the source; they are usually repeats but may differ in a detail not shown here. Equal values may be shown once. Read-outs that look alike come from different tables or passages of the source.
Columns and labels:
[1] = test system: CP70 ovarian cancer cell line; test: Proliferation assay (MTT); type: cell-based; conditions: Ovarian CP70, read-out: IC50
[2] = test system: MDA-MB-468 breast cancer cell line; test: Proliferation assay (MTT); type: cell-based; conditions: Homo sapiens, Breast MDA-MB-468, read-out: IC50
[3] = test system: A2058 melanoma cell line; test: Proliferation assay (MTT); type: cell-based; conditions: Homo sapiens
[4] = DHE and HMC pharmacokinetics, oral, mice; type: in vivo, female BALB/c mice
Procedure: HMC and DHE were prepared as homogenous suspensions in 1% CMC (m:v, water). Both formulations were delivered orally by gavage to female BALB/c mice at a dosage of 50 mg/kg. Three animals were allocated to each timepoint (15 min, 30 min, 1 hr, 4 hr and 24 hr). At each respective timepoint, animals were euthanased by cervical dislocation and blood collected. Free HMC was analysed by mass spectroscopy.

[5] = test system: HPAC pancreatic cancer tumours; test: Pilot in vivo efficacy study, HPAC tumour bearing mice; design: species or system Athymic nu/nu BALB/c mice
Excerpt: (§1) Subconfluent (80%) flasks of HPAC cells were trypsinised, washed in Hanks balanced salt solution (Sigma), resuspended in dubellco's minimal essential medium (Sigma) and an equal volume of Matrigel™ (Becton Dickson) at a density of 3.7×10^7 cells per ml. Athymic nu/nu BALB/c mice were s.c. inoculated with 3.7×10^6 HPAC cells bi-laterally midway along the dorsal surface. For the HMC (n=3 per dosage regimen) and control groups (n=2), treatment commenced five days post inoculation to allow tumour formation. HMC was formulated 20% HPBCD and delivered i.p. daily for 15 days. The control group received equivalent (weight:weight) i.p. doses of 20% HPBCD. Tumour measurements commenced on day 5 post inoculation (10×10 mm^2) and were measured in 2 dimensions, length (a) and width (b), using calipers. Tumor weight (W) was calculated by the formula W=ab2/2, where a, is the longer of the 2 measurements (Odwyer et al., 1994). Tumour proliferation curves were analyzed with respect to maximal tumour inhibition (treated/control, TIC). On sacrifice, liver, kidney, femur, stomach and colon tissue were fixed in buffered formalin, embedded in paraffin, sections cut and stained with H&E. Stained sections were then submitted to Rothwell consulting for histopathology analysis. Serum biochemistry was conducted on bloods taken from control, vehicle control and HMC treatment groups. Serum analysis was conducted by Veterinary Clinical pathology (U. Syd).
(§2) Histopathological examination of haematoxylin and eosin-stained sections cut from formalin-fixed tissues from two series of experimental mice was made. The liver, kidney, stomach and colon were examined for evidence of toxic damage, the spleen and bone marrow for evidence of myelosuppression and the tumour for degree of necrosis. A score of 0-5 was allocated to each tumour specimen for the degree of necrosis present, a 0 score representing, no necrosis and a score of 5, total necrosis. The sections were scored ‘blind’ on two separate occasions and the final score given in the results is the mean of these two scores.

[6] = Toxicity in HPAC tumour bearing mice (weight, histopathology, serum biochemistry); type: in vivo, Athymic nu/nu BALB/c mice
Excerpt: as §1, §2
Alakalines phosphatase (ALP), alanine transferase (ALT) and creatine (Cre) were assessed in HMC treated vs control animals. ALP and Cre levels were similar to control and fell within normal ranges (for rat) however, ALT levels in vehicle control and HMC treated groups were much lower than no treatment control levels.

[7] = test system: ME4405 melanoma cells (TRAIL sensitive); test: Apoptosis incidence in melanoma cells; type: cell-based
[8] = test system: TRAIL-sensitive and -resistant melanoma cells; test: Apoptosis incidence, statements over several melanoma cell lines; type: cell-based; conditions: for incidence of apoptosis: 4 μM
[9] = test system: MM200 melanoma cell line; test: HMC combination with topotecan (synergy); type: cell-based; conditions: for IC50: Table 11, single agent; for Change Factor (Combined): 5-day combination
Procedure: (§3) IC50 values were determined for each cell line. Cells were seeded in 96-well plates at an appropriate cell density as determined from growth kinetics analysis and cultured for 5 days in the absence and presence of the test compounds. […] IC50 values were calculated from semi-log plots of % of control proliferation on the y-axis against log dose on the x-axis.
(§4) 3-D model analysis of the cytotoxic interaction between drug A and drug B enables the representation of predicted inhibitory effect of two drugs in combination in 3 dimensions to reveal actual regions of synergy or antagonism. […] Theoretical Additivity was calculated from the cytotoxicities of drug A and drug B as monotherapies using the following formula which assumes the drugs are mutually exclusive inhibitors: […]
HMC synergy with topotecan was assessed either in combination over 5 days exposure or in sequence (HMC→topotecan) against the MM200 melanoma cell line.

[10] = test system: Mel-RM melanoma cell line; test: HMC combination with doxorubicin (synergy); type: cell-based; conditions: for IC50: Table 12, single agent; for Change Factor (Combined): 5-day combination
Procedure: as §3, §4
HMC synergy with doxorubicin was assessed either in combination over 5 days exposure or in sequence (HMC→doxorubicin) against the Mel-RM melanoma cell line.

[11] = individual HMC treated mice, 100 mg/kg, listed as HMC
[12] = 120 h, 5 days exposure, read-out: IC50, Combined (monotherapy)
[13] = 24 hr exposure, read-out: IC50, 24 hr (monotherapy)

COc1ccc(C2c3ccc(O)cc3OCC2c2ccc(O)cc2)cc1 (stereo not drawn) [Compound 1, 3-(4-hydroxyphenyl)-4-(4-methoxyphenyl)chroman-7-ol]
IC50 ([1]; Table 2.1): 1210 ± 290 nM
IC50 ([1]; Table 2.2 (further studies)): 2100 nM
IC50 ([2]; MDA-MB-468, Table 2.1): 1100 ± 350 nM
IC50 ([2]; MDA-MB-468, Table 2.2): 2800 ± 4200 nM
IC50 ([3]; A2058, Table 2.1, Melanoma A2058): 1200 ± 650 nM
IC50 ([3]; A2058, Table 15, melanoma A2058): 1420 ± 480 nM
concentration at 0.25 hr ([4]; female, BALB/c, mouse, plasma, po, 50 mg/kg p.o., Time 0.25, read-out: Free plasma concentration): 380 ± 40 nM
concentration at 0.5 hr ([4]; female, BALB/c, mouse, plasma, po, 50 mg/kg p.o., Time 0.5, read-out: Free plasma concentration): 1300 ± 200 nM
concentration at 1 hr ([4]; female, BALB/c, mouse, plasma, po, 50 mg/kg p.o., Time 1, read-out: Free plasma concentration): 950 ± 400 nM
concentration at 4 hr ([4]; female, BALB/c, mouse, plasma, po, 50 mg/kg p.o., Time 4, read-out: Free plasma concentration): 190 ± 80 nM
concentration at 24 hr ([4]; female, BALB/c, mouse, plasma, po, 50 mg/kg p.o., Time 24, read-out: Free plasma concentration): 0 nM
maximum plasma concentration of the free form ([4]; oral 50 mg/kg): 1.3 µM
ratio of free:total ([4]; oral 50 mg/kg): 0.92
time of maximum free concentration ([4]; oral 50 mg/kg): 30 min
final tumour burden (mean terminal tumour mass), % T/C ([5]; 100 mg/kg i.p. daily, 15 days): 62%
proliferation of HPAC tumours over the treatment period vs vehicle control ([5]; 100 mg/kg i.p. daily, 15 days, in 20% HPBCD): significantly retarded the proliferation of HPAC tumours
Necrosis Score 0-5 (tumour) ([5]; individual treated mice, 0 no necrosis, 5 total necrosis, mean of two blind scores): 2
toxicity as determined by weight loss ([6]; 100 mg/kg daily for 15 days): no signs of toxicity
toxicity to major organs by histopathology ([6]; 100 mg/kg to mice): not toxic to major organs
ALP (serum) [6, 11]: 111 U/L and 100 U/L and 74 U/L
ALT (serum) [6, 11]: 482 U/L and 494 U/L and 505 U/L
Cre (serum) [6, 11]: 8 uM (2×) and 17 uM
Urea (serum) [6, 11]: 8.11 mM and 7.79 mM and 7.27 mM
Percent Apoptosis ([7]; 24 hr exposure, 1 uM): 0%
Percent Apoptosis ([7]; 24 hr exposure, 2 uM): 8%
Percent Apoptosis ([7]; 24 hr exposure, 4 uM): 9%
Percent Apoptosis ([7]; 24 hr exposure, 8 uM): 11%
Percent Apoptosis ([7]; 24 hr exposure, 20 uM): 19%
Percent Apoptosis ([7]; 48 hr exposure, 1 uM): 1.5%
Percent Apoptosis ([7]; 48 hr exposure, 2 uM): 8%
Percent Apoptosis ([7]; 48 hr exposure, 4 uM): 42%
Percent Apoptosis ([7]; 48 hr exposure, 8 uM): 20%
Percent Apoptosis ([7]; 48 hr exposure, 20 uM): 18%
apoptosis ([8]; 2 μM, 24 and 48 hrs of exposure, all TRAIL-sensitive and -resistant melanoma cells): 7-10%
incidence of apoptosis ([8]; 24 hr exposure, the other cell lines (not MEL-RM, IGR3)): ~9%
incidence of apoptosis ([8]; 48 hr, all cell lines examined): 21-42%
IC50 [9, 12]: 0.702 µM
chemosensitisation of MM200 cells to topotecan (change in IC50) ([9]; HMC 2 μM, HMC→topotecan sequence): > 1000 fold
IC50 [9, 13]: 18 µM
Change Factor (HMC first) ([9]; Topotecan block, HMC 1 uM 24 hr then topotecan 24 hr): 50.656
Change Factor (Combined) ([9]; Topotecan block, with HMC 1 uM): ?HMC effect
Change Factor (Combined) ([9]; Topotecan block, with HMC 2 uM): ?HCM effect
Change Factor (HMC first) ([9]; upper block of Table 11, HMC 2 uM first, sequence): >1000
Change Factor (Combined) ([9]; upper block of Table 11, HMC 2 uM): ?HMC effect
IC50 [10, 12]: 0.54 µM
Change Factor (HMC first) ([10]; HMC 1 uM 24 hr then doxorubicin 24 hr): 1.62
Change Factor (HMC first) ([10]; HMC 2 uM 24 hr then doxorubicin 24 hr): 12.22
chemosensitisation of Mel-RM cells to camptothecin (change in IC50) ([10]; HMC 2 μM, sequence protocol): ~12 fold
IC50 [10, 13]: 50.5 µM
Change Factor (Combined) ([10]; doxorubicin with HMC 1 uM): −2.06
Change Factor (Combined) ([10]; doxorubicin with HMC 2 uM): ?HMC effect

— US8163795B2, “Chroman derivatives, medicaments and use in therapy” (Marshall Edwards, Inc., priority 2004, dated 2012)
